Reference: patent publication US20220257774A1, “AROMATIC AMINE AR AHD BET TARGETING PROTEIN DEGRADATION CHIMERA COMPOUND AND USE” (HINOVA PHARMACEUTICALS INC., priority 2019, published 2022)
Where two headings read alike, the source gives them in different places.

Legend:
Format in all cases: cell-based
LNCaP/AR cells = assay: Inhibition of the proliferation of LNCap/AR cells (CCK-8); details: read-out: LNCap/AR IC50
In short: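 LNCaP/AR cells (1000/well, RPMI1640 + 10% FBS) were treated for 6 days at 37 °C with 9-point 3-fold dilutions from 10 μM final, 0.1% DMSO, in duplicate. Viability was read by CCK-8 absorbance at 450 nm after 1 h, and IC50 came from a dose-response-inhibition fit.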

Androgen receptor (AR) = assay: Down-regulation/degradation of AR determined by Western blot in CWR22RV1 cells; details: concentration 100 nM, 24 h
Procedure: (§1) The Down-Regulation on the Protein Expression of Androgen Receptors AR and Brd4 Determined by Western Blot CWR22RV1 cells (National Collection of Authenticated Cell Cultures. TCHu100) FBS (Gibco, Cat. No. 10099-141) 0.01M PBS (Biosharp. Cat. No. 162262) RIPM1640 (Hyclone, Cat. No. 308090.01) Penicillin-Streptomycin (Hyclone. Cat. No. SV30010) DMSO (Sigma. Cat. No. D5879) Centrifuge tube, 15 ml (Excell Bio. Cat. No. CS015-0001) Cell culture plate (Excell Bio. Cat. No. CS016-0128) 6-well cell culture cluster (Corning, Cat. No. 3516) RIPA lysate buffer (Beyotime, Cat. No. P0013B) Protein loading buffer (Beyotime, Cat. No. P0015L) CA protein assay kit (Beyotime, Cat. No. P0012) SDS-PAGE gel preparation kit (Chengdu Baihe Technology Co., Ltd. Cat. No. PG112) Anti-β-tubulin mouse mAb (Zen Bioscience, Cat. No. 200608) Androgen Receptor ([…]) XP Rabbit mAb (CST. Cat. No. 5153) Anti-cMyc(D3N8F) Rabbit mAb (CST. Cat. No. 13987) Anti-BRD4(E2A7X) rabbit mAb (CST, Cat. No. 13440) Peroxidase Affinipure(HRP) Goat Anti-Mouse IgG (Zen Bioscience, Cat. No. 511103) Peroxidase Affinipure(HRP) Goat Anti-Rabbit IgG (Zen Bioscience, Cat. No. 511203) TBST (Biosharp. Cat. No. B[…]) ECL chemiluminescence kit (Beyotime, Cat. No. […]1 cells were subcultured in cell culture media, and then the cells in good growth condition were seeded in a 6-well plate at 2 ml/well (1×10^6 cells/well), and cultured overnight in a 37° C., 5% CO2 cell incubator. 2) The drug was prepared as a 10 mM stock solution with dimethyl sulfoxide (DMSO). […] The plate was gently tapped to thoroughly mix. In addition, the experiment included negative control wells (containing equal amount of DMSO) and positive control wells. 3) After culturing 24 hi, the cells were lysed with RIPA cell lysate, and the protein was extracted. […] The first antibody (Androgen Receptor ([…]) XP Rabbit mAb. Anti-cMyc(D3N8F) Rabbit mAb, Anti-BRD4(E2A7X) rabbit mAb and Anti-β-Tubulin Mouse mAb) was added and incubated overnight at 4° C. The membrane was rinsed with TBST solution three times, 10 min for each time. The secondary antibody (horseradish peroxidase labeled goat anti mouse IgG) was added and incubated at room temperature for 2 h, and then the membrane was washed with TBST solution three times, 10 m for each time. Finally. ECL chemiluminescence solution was added, and then photos were taken with automatic chemiluminescence instrument to collect pictures for analysis.

BRD4 = target: T1, BRD4 (Homo sapiens, UniProt O60885); assay: Down-regulation/degradation of BRD4 determined by Western blot in CWR22RV1 cells; details: concentration 100 nM, 24 h
T1 construct: CWR22RV1 cells were subcultured in cell culture media; endogenous in cells; host or cells: CWR22RV1 cells
Procedure: as §1

22RV1 cells = assay: Inhibition of the proliferation of drug-resistant prostate cancer cell 22RV1 (CCK-8); details: 22RV1 cells (enzalutamide-resistant), same method
In short: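 22RV1 cells, 1000/well in RPMI1640 with 10% FBS, treated in duplicate with 9-point 3-fold dilutions from 10 μM (0.1% DMSO final). After 6 days at 37 °C, CCK-8 added for 1 h and OD450 read. IC50 from dose-response inhibition fit.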

[1] = 144 h, LNCaP/AR cells, 6 days culture, CCK-8
[2] = LNCaP/AR cells, 6 days culture, CCK-8

Row | Structure (SMILES) | IC50 (LNCaP/AR cells; [1]) [nM] | AR (% degradation) (Androgen receptor (AR)) | BRD4 (% degradation) (BRD4) | IC50 (22RV1 cells; Homo sapiens) [nM] | IC50 (LNCaP/AR cells; LNCaP/AR, 144 h) [nM] | IC50 (LNCaP/AR cells; [2]) [nM] | IC50 (22RV1 cells) [nM]
1 | Cc1ccc(-c2c(C)noc2C)cc1N(CCCCCOCC(=O)N[C@H](C(=O)N1C[C@H](O)C[C@H]1C(=O)N[C@@H](C)c1ccc(-c2scnc2C)cc1)C(C)(C)C)c1ccc(-n2ccnc2)c(Br)c1 [Compound 10, (2S,4R)-1-((S)-2-(2-((5-((3-bromo-4-(1H-imidazol-1-yl)phenyl)(5-(3,5-dimethylisoxazol-4-yl)-2-methylphenyl)amino)n-pentyl)oxy)acetylamino)-3,3-dimethylbutyryl)-4-hydroxy-N—((S)-1-(4-(4-methylthiazol-5-yl)phenyl)ethyl)pyrrolidinyl-2-formamide] | < 100 | B (79%-50% of the target protein was degraded) | B (79%-50% of the target protein was degraded) | – | – | – | –
2 | Cc1ccc(-c2c(C)noc2C)cc1N(CC1CC(Nc2cc3c(cc2F)C(=O)N(C2CCC(=O)NC2=O)C3=O)C1)c1ccc(C2(C#N)CC2)cc1 (stereo not shown) [Compound 37] | 501 to 2000 | D (<20% of the target protein was degraded) | D (<20% of the target protein was degraded) | 101 to 500 | – | – | –
3 | Cc1ccc(-c2c(C)noc2C)cc1N(CC1CC(Nc2cc3c(cc2F)C(=O)N(C2CCC(=O)NC2=O)C3)C1)c1ccc(C2(C#N)CC2)cc1 (stereo not shown) [Compound 39] | 501 to 2000 | C (49%-20% of the target protein was degraded) | C (49%-20% of the target protein was degraded) | < 100 | – | – | –
4 | Cc1ccc(-c2c(C)noc2C)cc1N(CCCCNc1cc2c(cc1F)C(=O)N(C1CCC(=O)NC1=O)C2)c1ccc(C2(C#N)CC2)cc1 (stereo not shown) [Compound 43, 1-(4-((5-(3,5-Dimethylisoxazol-4-yl)-2-methylphenyl)(4-((2-(2,6-dioxopiperidin-3-yl)-6-fluoro-1-oxoisoindolin-5-yl)amino)butyl)amino)phenyl)cyclopropane-1-nitrile] | 501 to 2000 | B (79%-50% of the target protein was degraded) | C (49%-20% of the target protein was degraded) | < 100 | – | – | –
5 | Cc1ccc(-c2c(C)noc2C)cc1N(CCCCCNc1ccc2c(c1)CN(C1CCC(=O)NC1=O)C2=O)c1ccc(C#N)c(Cl)c1 (stereo not shown) [Compound 63, 2-chloro-4-((5-(3,5-dimethylisoxazol-4-yl)-2-methylphenyl)(5-((2-(2,6-dioxopiperidin-3-yl)-1-oxoisoindolin-5-yl)amino)pentyl)amino)benzonitrile] | – | C (49%-20% of the target protein was degraded) | C (49%-20% of the target protein was degraded) | < 100 | < 100 | – | –
6 | Cc1ccc(-c2c(C)noc2C)cc1N(c1ccc(C2(C#N)CC2)cc1)C1CN([C@H]2C[C@@H](Nc3cc4c(cc3F)CN([C@H]3CCC(=O)NC3=O)C4=O)C2)C1 [Compound 68, 1-(4-((5-(3,5-dimethylisoxazol-4-yl)-2-methylphenyl)(1-((1s,3s)-3-((2-(2,6-dioxopiperidin-3-yl)-6-fluoro-3-oxoisoindolin-5-yl)amino)cyclobutyl)azetidin-3-yl)amino)phenyl)cyclopropane-1-nitrile] | – | D (<20% of the target protein was degraded) | A (>80% of the target protein was degraded) | – | – | < 100 | < 100
7 | Cc1ccc(-c2c(C)noc2C)cc1N(c1ccc(C2(C#N)CC2)cc1)C1CN([C@H]2C[C@H](Nc3cc4c(cc3F)CN([C@@H]3CCC(=O)NC3=O)C4=O)C2)C1 [Compound 70] | – | C (49%-20% of the target protein was degraded) | C (49%-20% of the target protein was degraded) | – | – | 501 to 2000 | < 100
8 | Cc1ccc(-c2c(C)noc2C)cc1N(CC(C)OC1CCN(c2ccc3c(c2)C(=O)N(C2CCC(=O)NC2=O)C3=O)CC1)c1ccc(C2(C#N)CC2)cc1 (stereo not shown) [Compound 106] | 501 to 2000 | C (49%-20% of the target protein was degraded) | B (79%-50% of the target protein was degraded) | < 100 | – | – | –
9 | Cc1ccc(-c2c(C)noc2C)cc1N(CCOC1(C)CN(c2cc3c(cc2F)C(=O)N(C2CCC(=O)NC2=O)C3=O)C1)c1ccc(C2(C#N)CC2)cc1 (stereo not shown) [Compound 111, 1-(4-((5-(3,5-Dimethylisoxazol-4-yl)-2-methylphenyl)(2-((1-(2-(2,6-dioxopiperidin-3-yl)-6-fluoro-1,3-dioxoisoindolin-5-yl)-3-methylazetidin-3-yl)oxy)ethyl)amino)phenyl)cyclopropanecarbonitrile] | > 2000 | D (<20% of the target protein was degraded) | D (<20% of the target protein was degraded) | 101 to 500 | – | – | –
10 | Cc1ccc(-c2c(C)noc2C)cc1N(CCOC1(C)CN(c2cc3c(cc2F)C(=O)N(C2CCC(=O)NC2=O)C3)C1)c1ccc(C2(C#N)CC2)cc1 (stereo not shown) [Compound 113, 1-(4-((5-(3,5-Dimethylisoxazol-4-yl)-2-methylphenyl)(2-((1-(2-(2,6-dioxopiperidin-3-yl)-6-fluoro-1-oxoisoindolin-5-yl)-3-methylazetidin-3-yl)oxy)ethyl)amino)phenyl)cyclopropanecarbonitrile] | 501 to 2000 | D (<20% of the target protein was degraded) | C (49%-20% of the target protein was degraded) | 501 to 2000 | – | – | –
11 | Cc1ccc(-c2c(C)noc2C)cc1N(CC1CCN(CCNc2ccc3c(c2)C(=O)N(C2CCC(=O)NC2=O)C3=O)CC1)c1ccc(C2(C#N)CC2)cc1 (stereo not shown) [Compound 117] | 501 to 2000 | D (<20% of the target protein was degraded) | B (79%-50% of the target protein was degraded) | < 100 | – | – | –
12 | Cc1ccc(-c2c(C)noc2C)cc1N(CCCCCNc1ccc2c(c1)CN(C1CCC(=O)NC1=O)C2=O)c1ccc(C2(C#N)CC2)cc1 (stereo not shown) [Compound 145, 1-(4-((5-(3,5-dimethylisoxazol-4-yl)-2-methylphenyl)(5-((2-(2,6-dioxopiperidin-3)-1-isoindolinone-5-yl))amino)pentyl)amino)phenylcyclopropanecarbonitrile] | < 100 | C (49%-20% of the target protein was degraded) | C (49%-20% of the target protein was degraded) | – | – | – | –
13 | Cc1ccc(-c2c(C)noc2C)cc1N(CCCCCNc1ccc2c(c1)C(=O)N(C1CCC(=O)NC1=O)C2=O)c1ccc(C2(C#N)CC2)cc1 (stereo not shown) [Compound 147, 1-(4-((5-(3,5-Dimethylisoxazol-4-yl)-2-methylphenyl)(5-((2-(2,6-dioxopiperidin-3)-1,3-dicarbonylisoindolin-5))amino)pentyl)amino)phenylcyclopropanecarbonitrile] | < 100 | C (49%-20% of the target protein was degraded) | A (>80% of the target protein was degraded) | – | – | – | –
